Results: PubChem BioAssay (NCI)
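All cell lines were grown in 96-well plates and treated with compound for 48 hours. GI50 is the concentration that inhibits growth by half. TGI is the concentration that stops growth completely.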

Columns and labels:
Assay in all cases: DTP human tumour cell line panel, 48 h
HCT-15 colon = tested on: HCT-15 colon
CCRF-CEM leukemia = tested on: CCRF-CEM leukemia
NCI-H226 lung = tested on: NCI-H226 lung
SN12C renal = tested on: SN12C renal
SK-MEL-2 melanoma = tested on: SK-MEL-2 melanoma
OVCAR-4 ovarian = tested on: OVCAR-4 ovarian
NCI-H460 lung = tested on: NCI-H460 lung
MCF7 breast = tested on: MCF7 breast
SW-620 colon = tested on: SW-620 colon
TK-10 renal = tested on: TK-10 renal
786-0 renal = tested on: 786-0 renal
DU-145 prostate = tested on: DU-145 prostate
HCC-2998 colon = tested on: HCC-2998 colon
SK-OV-3 ovarian = tested on: SK-OV-3 ovarian
MDA-MB-435 = tested on: MDA-MB-435
SK-MEL-28 melanoma = tested on: SK-MEL-28 melanoma
SK-MEL-5 melanoma = tested on: SK-MEL-5 melanoma
NCI/ADR-RES ovarian = tested on: NCI/ADR-RES ovarian
OVCAR-5 ovarian = tested on: OVCAR-5 ovarian
HOP-62 NSCLC = tested on: HOP-62 NSCLC
RPMI-8226 leukemia = tested on: RPMI-8226 leukemia
U251 CNS = tested on: U251 CNS
HOP-92 NSCLC = tested on: HOP-92 NSCLC
MDA-MB-231 breast = tested on: MDA-MB-231 breast
LOX IMVI melanoma = tested on: LOX IMVI melanoma
ACHN renal = tested on: ACHN renal
RXF 393 renal = tested on: RXF 393 renal
MOLT-4 leukemia = tested on: MOLT-4 leukemia
NCI-H522 lung = tested on: NCI-H522 lung
OVCAR-8 ovarian = tested on: OVCAR-8 ovarian
OVCAR-3 ovarian = tested on: OVCAR-3 ovarian
SF-539 CNS = tested on: SF-539 CNS
UO-31 renal = tested on: UO-31 renal
A549 NSCLC = tested on: A549 NSCLC
SF-268 CNS = tested on: SF-268 CNS
EKVX NSCLC = tested on: EKVX NSCLC
M14 melanoma = tested on: M14 melanoma
KM12 colon = tested on: KM12 colon
HL-60(TB) leukemia = tested on: HL-60(TB) leukemia
A498 renal = tested on: A498 renal
HCT-116 colon = tested on: HCT-116 colon
IGROV1 ovarian = tested on: IGROV1 ovarian
SR leukemia = tested on: SR leukemia
SNB-19 CNS = tested on: SNB-19 CNS
SF-295 CNS = tested on: SF-295 CNS
HT29 colon = tested on: HT29 colon
SNB-75 CNS = tested on: SNB-75 CNS
UACC-257 melanoma = tested on: UACC-257 melanoma
HS 578T breast = tested on: HS 578T breast
CAKI-1 renal = tested on: CAKI-1 renal
K-562 leukemia = tested on: K-562 leukemia
NCI-H23 lung = tested on: NCI-H23 lung
BT-549 breast = tested on: BT-549 breast
UACC-62 melanoma = tested on: UACC-62 melanoma
PC-3 prostate = tested on: PC-3 prostate
MALME-3M melanoma = tested on: MALME-3M melanoma
COLO 205 colon = tested on: COLO 205 colon
T-47D breast = tested on: T-47D breast

SMILES: CC[C@]12C=CCN3CC[C@@]4(c5ccc(OC)cc5N(C)[C@H]4[C@@](O)(C(=O)OC)[C@@H]1OC(=O)CCCC[P+](c1ccccc1)(c1ccccc1)c1ccccc1)[C@@H]32
- GI50 (HCT-15 colon): 19.4 µM
- TGI (HCT-15 colon): 43.6 µM
- GI50 (CCRF-CEM leukemia): 0.789 µM
- TGI (CCRF-CEM leukemia): 6.46 µM
- GI50 (NCI-H226 lung): 2.12 µM
- TGI (NCI-H226 lung): 9.74 µM
- GI50 (SN12C renal): 0.414 µM
- TGI (SN12C renal): 8.26 µM
- GI50 (SK-MEL-2 melanoma): 0.478 µM
- TGI (SK-MEL-2 melanoma): 1.45 µM
- GI50 (OVCAR-4 ovarian): 0.342 µM
- TGI (OVCAR-4 ovarian): 10.8 µM
- GI50 (NCI-H460 lung): 1.7 µM
- TGI (NCI-H460 lung): 11.6 µM
- GI50 (MCF7 breast): 0.32 µM
- TGI (MCF7 breast): 5.3 µM
- GI50 (SW-620 colon): 1.14 µM
- TGI (SW-620 colon): 12.6 µM
- GI50 (TK-10 renal): 2.79 µM
- TGI (TK-10 renal): 9.66 µM
- GI50 (786-0 renal): 2.33 µM
- TGI (786-0 renal): 6.74 µM
- GI50 (DU-145 prostate): 0.875 µM
- TGI (DU-145 prostate): 13.2 µM
- GI50 (HCC-2998 colon): 0.42 µM
- TGI (HCC-2998 colon): 2.71 µM
- GI50 (SK-OV-3 ovarian): 0.725 µM
- TGI (SK-OV-3 ovarian): 5.9 µM
- GI50 (MDA-MB-435): 0.359 µM
- TGI (MDA-MB-435): 1.31 µM
- GI50 (SK-MEL-28 melanoma): 0.52 µM
- TGI (SK-MEL-28 melanoma): 1.84 µM
- GI50 (SK-MEL-5 melanoma): 1.69 µM
- TGI (SK-MEL-5 melanoma): 3.08 µM
- GI50 (NCI/ADR-RES ovarian): > 100 µM
- TGI (NCI/ADR-RES ovarian): > 100 µM
- GI50 (OVCAR-5 ovarian): 1.82 µM
- TGI (OVCAR-5 ovarian): 12.5 µM
- GI50 (HOP-62 NSCLC): 2.94 µM
- TGI (HOP-62 NSCLC): 13.7 µM
- GI50 (RPMI-8226 leukemia): 0.332 µM
- TGI (RPMI-8226 leukemia): 2.11 µM
- GI50 (U251 CNS): 0.441 µM
- TGI (U251 CNS): 4.4 µM
- GI50 (HOP-92 NSCLC): 0.238 µM
- TGI (HOP-92 NSCLC): 1.35 µM
- GI50 (MDA-MB-231 breast): 0.414 µM
- TGI (MDA-MB-231 breast): 1.9 µM
- GI50 (LOX IMVI melanoma): 1.11 µM
- TGI (LOX IMVI melanoma): 9.03 µM
- GI50 (ACHN renal): 14 µM
- TGI (ACHN renal): 30.1 µM
- GI50 (RXF 393 renal): 0.635 µM
- TGI (RXF 393 renal): 2.72 µM
- GI50 (MOLT-4 leukemia): 1.36 µM
- TGI (MOLT-4 leukemia): 5.29 µM
- GI50 (NCI-H522 lung): 0.295 µM
- TGI (NCI-H522 lung): 1.77 µM
- GI50 (OVCAR-8 ovarian): 2.23 µM
- TGI (OVCAR-8 ovarian): 9.92 µM
- GI50 (OVCAR-3 ovarian): 0.41 µM
- TGI (OVCAR-3 ovarian): 2.23 µM
- GI50 (SF-539 CNS): 0.993 µM
- TGI (SF-539 CNS): 12.1 µM
- GI50 (UO-31 renal): 12.8 µM
- TGI (UO-31 renal): 26.4 µM
- GI50 (A549 NSCLC): 1.86 µM
- TGI (A549 NSCLC): 10.2 µM
- GI50 (SF-268 CNS): 0.644 µM
- TGI (SF-268 CNS): 3.98 µM
- GI50 (EKVX NSCLC): 0.907 µM
- TGI (EKVX NSCLC): 15.8 µM
- GI50 (M14 melanoma): 1.45 µM
- TGI (M14 melanoma): 4.13 µM
- GI50 (KM12 colon): 0.44 µM
- TGI (KM12 colon): 1.85 µM
- GI50 (HL-60(TB) leukemia): 0.34 µM
- TGI (HL-60(TB) leukemia): 1.15 µM
- GI50 (A498 renal): 2.84 µM
- TGI (A498 renal): 10.4 µM
- GI50 (HCT-116 colon): 0.777 µM
- TGI (HCT-116 colon): 12 µM
- GI50 (IGROV1 ovarian): 0.486 µM
- TGI (IGROV1 ovarian): 1.98 µM
- GI50 (SR leukemia): 0.446 µM
- TGI (SR leukemia): 4.14 µM
- GI50 (SNB-19 CNS): 0.384 µM
- TGI (SNB-19 CNS): 2.92 µM
- GI50 (SF-295 CNS): 2.65 µM
- TGI (SF-295 CNS): 9.04 µM
- GI50 (HT29 colon): 0.441 µM
- TGI (HT29 colon): 5.48 µM
- GI50 (SNB-75 CNS): 0.357 µM
- TGI (SNB-75 CNS): 2.08 µM
- GI50 (UACC-257 melanoma): 0.279 µM
- TGI (UACC-257 melanoma): 1.09 µM
- GI50 (HS 578T breast): 1.34 µM
- TGI (HS 578T breast): 9.11 µM
- GI50 (CAKI-1 renal): 3.61 µM
- TGI (CAKI-1 renal): 13.7 µM
- GI50 (K-562 leukemia): 0.789 µM
- TGI (K-562 leukemia): 11.4 µM
- GI50 (NCI-H23 lung): 1.07 µM
- TGI (NCI-H23 lung): 10.5 µM
- GI50 (BT-549 breast): 0.465 µM
- TGI (BT-549 breast): 1.94 µM
- GI50 (UACC-62 melanoma): 0.374 µM
- TGI (UACC-62 melanoma): 1.54 µM
- GI50 (PC-3 prostate): 0.391 µM
- TGI (PC-3 prostate): 7.77 µM
- GI50 (MALME-3M melanoma): 0.319 µM
- TGI (MALME-3M melanoma): 1.35 µM
- GI50 (COLO 205 colon): 0.242 µM
- TGI (COLO 205 colon): 0.586 µM
- GI50 (T-47D breast): 0.396 µM
- TGI (T-47D breast): 12.7 µM
